{"source": "patent US8889680B2", "about": "“Treatment or prevention of fungal infections with PDK1 inhibitors” (priority 2010, dated 2014)", "key": {"C. glabrata": {"test_system": "C. glabrata", "test": "Antifungal susceptibility (microdilution MIC), C. glabrata", "assay_type": "cell-based, Candida glabrata", "protocol": "The antifungal activity of protein kinase inhibitors was determined using the Clinical and Laboratory Science Institute microdilution protocol M-27A2. Biofilm antifungal activity was determined using the protocol of Pierce et al. and is reported as MIC50S (Pierce et al., Nat. Protoc. 3:1494-1500 (2008)). Disk diffusion assays were performed as described previously (Roelants et al., Microbiology 150:3289-304 (2004)).\n(FIG. 3A). […] Since the echinocandin class of cell wall-targeted 1,3-β-glucan synthase inhibitors is not active against C. neoformans, this represents one of the few cell wall-targeted molecules with activity against this important pathogen."}, "[1]": {"test_system": "CWI pathway reporter Rlm1-lacZ", "test": "β-Galactosidase CWI pathway reporter assay (Rlm1-lacZ)", "assay_type": "cell-based", "conditions": "sub-inhibitory concentrations (1/2 MIC), S. cerevisiae", "protocol": "Bars indicate mean fold change in Miller units of β-galactosidase activity relative to logarithmic phase cells without calcofluor or PKI. Error bars indicate standard deviation of three independent trials performed in triplicate. […] The percentage of cells with PI uptake was determined by fluorescence.\nLogarithmic phase S. cerevisiae (BY4741) cells harboring the pRLM1-lacZ plasmid were transferred to a 96-well plate, and treated with Calcofluor white ([…])+/−protein kinase inhibitor at sub-inhibitory concentrations (1/2MIC). The cells were incubated at room temperature for 5 hours and processed for β-galactosidase activity using the ThermoScientific Yeast β-galactosidase kit according to the manufacturer's instructions (Pierce; Rockford, Ill.). β-galactosidase activity was determined by measuring OD420 using a SpectraMax Plate reader (Molecular Devices) and expressed as fold change in Miller units (nmole/mg/min) relative to untreated cells. Each experiment was performed in duplicate with three independent isolates.\nThe novel, antifungal PKIs identified in the primary screen were evaluated for their ability to block CWI pathway signaling using a reporter construct that contains two copies of the consensus binding site for the CWI-pathway-regulated transcription factor Rlm1 fused to the β-galactosidase gene (Jung et al., Mol. Microbiol. 46:781-9 (2002)). […]"}, "C. albicans": {"test_system": "C. albicans", "test": "Checkerboard interaction assay (FIC)", "assay_type": "cell-based, Candida albicans", "protocol": "This assay allows one to compare the activity of a molecule alone and in combination with another molecule by generating a fractional inhibitory concentration (FIC). FIC for two drugs (A & B) is calculated as follows: […]. FIC values less than 0.5 are considered synergistic; between 0.5 and 1 are additive; between 1-2 are indifferent; and above 2 are antagonistic. […] Therefore, KP-372-1 is not synergistic with either agent."}}}
{"smiles": "O=C1c2ccccc2-c2nc3nnnn3nc21.O=C1c2ccccc2-c2nn3nnnc3nc21", "note": "[KP-372-1]", "values": [{"measurement": "antifungal activity (in words)", "setting": "C. glabrata", "value": "highly active"}, {"measurement": "Rlm1-lacZ reporter activity induced by Calcofluor white", "setting": "[1]", "value": "completely abolished reporter activity"}, {"measurement": "FIC (fractional inhibitory concentration)", "setting": "C. albicans; combination with caspofungin", "value": 0.5}, {"measurement": "FIC (fractional inhibitory concentration)", "setting": "C. albicans; combination with fluconazole", "value": 1.0}]}
